The values below come from article PMC10728902, “β-L-Arabinofurano-cyclitol Aziridines Are Covalent Broad-Spectrum Inhibitors and Activity-Based Probes for Retaining β-L-Arabinofuranosidases” (ACS Chemical Biology, 2023).

The target in one test is T1, rHypBA1 (Bifidobacterium longum, UniProt E8MGH8).
T1 construct: gene hypBA1; recombinant; 74 kDa; produced by published procedures
T1 sequence (E8MGH8 1-658): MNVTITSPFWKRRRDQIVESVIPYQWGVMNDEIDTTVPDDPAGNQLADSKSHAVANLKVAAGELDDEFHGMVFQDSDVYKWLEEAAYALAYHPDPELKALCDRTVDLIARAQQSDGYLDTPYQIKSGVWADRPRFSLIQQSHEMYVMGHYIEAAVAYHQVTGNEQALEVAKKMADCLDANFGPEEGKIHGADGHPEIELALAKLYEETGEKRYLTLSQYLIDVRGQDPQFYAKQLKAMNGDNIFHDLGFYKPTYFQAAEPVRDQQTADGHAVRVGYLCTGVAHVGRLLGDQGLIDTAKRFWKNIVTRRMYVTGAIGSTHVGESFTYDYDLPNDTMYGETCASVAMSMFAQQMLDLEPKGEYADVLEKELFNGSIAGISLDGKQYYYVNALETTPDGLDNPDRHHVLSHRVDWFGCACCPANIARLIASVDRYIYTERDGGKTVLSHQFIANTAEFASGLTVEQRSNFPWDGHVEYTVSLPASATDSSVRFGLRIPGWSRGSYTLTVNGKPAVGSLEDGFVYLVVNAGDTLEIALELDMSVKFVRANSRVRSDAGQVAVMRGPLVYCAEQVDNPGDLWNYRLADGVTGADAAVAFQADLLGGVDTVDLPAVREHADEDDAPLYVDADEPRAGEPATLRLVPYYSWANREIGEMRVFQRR
Nature of the test: inactivation kinetics, residual hydrolysis of 4-nitrophenyl beta-L-arabinofuranoside, A405. The format is biochemical. From the text: inactivation kinetics, residual hydrolysis of 4-nitrophenyl beta-L-arabinofuranoside, A405 on rHypBA1

Another test concerns the target T2, rBtGH146 (Bacteroides thetaiotaomicron, UniProt Q8AAW3).
T2 construct: gene BT_0349; recombinant, expressed in E. coli; 92 kDa on gel; produced by published procedures
T2 sequence (Q8AAW3 1-802): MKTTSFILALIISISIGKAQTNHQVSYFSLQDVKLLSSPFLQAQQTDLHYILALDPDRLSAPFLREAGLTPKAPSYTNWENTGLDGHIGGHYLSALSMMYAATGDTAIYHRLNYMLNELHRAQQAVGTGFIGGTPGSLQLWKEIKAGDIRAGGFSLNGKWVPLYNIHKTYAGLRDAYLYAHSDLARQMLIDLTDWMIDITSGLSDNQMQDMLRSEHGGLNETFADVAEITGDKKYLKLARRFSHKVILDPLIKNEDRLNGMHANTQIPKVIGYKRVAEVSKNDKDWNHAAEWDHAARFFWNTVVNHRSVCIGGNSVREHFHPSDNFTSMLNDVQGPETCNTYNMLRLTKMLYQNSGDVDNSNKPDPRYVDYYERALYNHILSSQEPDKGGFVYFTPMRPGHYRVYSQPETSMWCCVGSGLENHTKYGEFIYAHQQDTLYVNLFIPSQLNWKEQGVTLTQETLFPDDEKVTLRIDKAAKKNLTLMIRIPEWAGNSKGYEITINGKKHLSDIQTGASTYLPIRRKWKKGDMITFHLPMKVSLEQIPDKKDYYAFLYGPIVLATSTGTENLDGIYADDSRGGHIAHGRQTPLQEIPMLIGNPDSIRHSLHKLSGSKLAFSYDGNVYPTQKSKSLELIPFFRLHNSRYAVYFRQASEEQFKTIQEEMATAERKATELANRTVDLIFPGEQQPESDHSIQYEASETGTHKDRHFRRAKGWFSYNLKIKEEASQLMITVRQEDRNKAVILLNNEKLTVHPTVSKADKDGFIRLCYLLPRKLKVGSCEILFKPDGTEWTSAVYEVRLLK
The test is described as above. The format is biochemical. From the text:
inactivation kinetics, residual hydrolysis of 4-nitrophenyl beta-L-arabinofuranoside, A405 on rBtGH146

The mark [1] stands for this setting: read-out: rBtGH146 / KI, covalent, time-dependent, pH 7.5 HEPES, 200 mM NaCl, 1 mM DTT, 37 °C.

Read-outs that look alike come from different tables or passages of the source.

On to `NCCCCCCCCN1[C@@H]2[C@H](O)[C@@H](O)[C@H](CO)[C@@H]21` (stereo partly drawn) [compound 7, aziridine 7], for which the KI (inactivation) is 280 ± 90 µM at rHypBA1 (read-out: rHypBA1 / KI, covalent, time-dependent, pH 4.5 acetate, 1 mM DTT, 37 °C) and 190 ± 20 µM on rBtGH146 (setting [1]).
In the case of `CN1C(=CC=CC=CC2=[N+](CCCCCC(=O)NCCCCCCCCOC[C@H]3[C@H](O)[C@@H](O)[C@H]4O[C@@H]34)c3ccccc3C2(C)C)C(C)(C)c2ccccc21` [compound 4, Cy5-tagged epoxide ABP 4], the kinact/KI – broadly, the second-order rate constant of inactivation – at rHypBA1 was less than 0.1 M⁻¹ s⁻¹. For the same compound, the KI (inactivation) on rBtGH146 (setting [1]) was found to be 140 ± 10 µM.
Turning to `OC[C@H]1[C@H](O)[C@@H](O)[C@H]2N[C@@H]12` [compound 2, β-L-arabinofuranosyl cyclophellitol aziridine], the kinact/KI at rHypBA1 was more than 4200 M⁻¹ s⁻¹. Further, the KI (inactivation) on rBtGH146 (covalent, time-dependent, pH 7.5 HEPES, 200 mM NaCl, 1 mM DTT, 37 °C, read-out: rBtGH146 / KI) is 350 ± 40 µM.
